Measured values reported in patent US20210395226A1, “SUBSTITUTED ARYL COMPOUND AND PREPARATION METHOD THEREFOR AND USE THEREOF” (SICHUAN KELUN-BIOTECH BIOPHARMACEUTICAL CO., LTD., priority 2018, published 2021).
pKi: −log10 of the molar value. Where two headings read alike, the source gives them in different places.

Assays:
[1] = biological target: T1, Adenosine A2a receptor (human) membrane (Homo sapiens, UniProt P29274); assay: Determination of competitive inhibition constant (Ki) for adenosine A2a receptor, [3H]-CGS-21680 radioligand; format: binding; settings: for pKi: human A2a receptor membrane, 6.0 nM [3H]-CGS-21680, read-out: Ki(A2a); for Ki(A1)/Ki(A2a): selectivity ratio A1 over A2a
T1 construct: purchased PerkinElmer RBHA2AM400UA
T1 sequence (P29274 whole entry): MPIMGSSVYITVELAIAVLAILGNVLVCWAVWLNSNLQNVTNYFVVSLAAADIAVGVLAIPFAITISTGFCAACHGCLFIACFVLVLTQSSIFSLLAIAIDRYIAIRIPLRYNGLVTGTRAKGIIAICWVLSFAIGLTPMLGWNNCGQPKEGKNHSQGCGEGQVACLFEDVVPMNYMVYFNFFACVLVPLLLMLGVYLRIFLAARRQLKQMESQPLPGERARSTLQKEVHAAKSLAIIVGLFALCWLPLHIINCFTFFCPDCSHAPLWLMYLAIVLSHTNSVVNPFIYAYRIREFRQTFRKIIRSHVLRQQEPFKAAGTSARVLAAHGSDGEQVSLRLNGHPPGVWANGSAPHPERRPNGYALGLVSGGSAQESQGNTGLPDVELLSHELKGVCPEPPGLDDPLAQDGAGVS
Protocol: (§1) Test Example 1: Determination of Competitive Inhibition Constant (Ki) for Adenosine A1 and A2a Receptors
Adenosine A2a receptor (human) membrane (PerkinElmer, RBHA2AM400UA),
assay buffer for A2a (50 mM Tris-HCl, 10 mM MgCl2, 1 mM EDTA, pH7.4), used to dilute adenosine A2a receptor (human) membrane (human origin) and [^3H]-CGS-21680; and
wash buffer for A2a (50 mM Tris-HCl, 154 mM NaCl, pH7.4).
(§2) Adenosine A1 receptor membrane was diluted to 0.025 μg/μl with assay buffer for A1, and Adenosine A2a receptor membrane was diluted to 0.05 μg/μl with assay buffer for A2a, so as to obtain Adenosine A1 receptor membrane dilution and Adenosine A2a receptor membrane dilution.
(§3) The compound to be tested and CGS-15943 were diluted with DMSO, and 1 W of the compound to be tested, high value control (0.5% DMSO), low value control (1000 nM CGS-15943) were added to a 96-well plate, and 100 W of Adenosine A1 receptor membrane dilution (containing 2.5 μg of membrane) was added to each well of the 96-well plate to obtain A1 detection plate; following the same steps, 100 W of Adenosine A2a receptor membrane dilution (containing 5.0 μg membrane) was added to each well of the 96-well plate to obtain A2a detection plate.
(§4) To the A1 detection plate, 100 μl of radioisotope-labeled ligand [^3H]-DPCPX (diluted with assay buffer for A1, working concentration of which was 1.0 nM) was added; and to the A2a detection plate, 100 μl of radioisotope-labeled ligand [^3H]-CGS-21680 (diluted with assay buffer for A2a, working concentration of which was 6.0 nM) was added. The A1 and A2a detection plates were sealed with tape, and incubated at room temperature for 1 h and 2 h, respectively.
(§5) Unifilter-96 GF/C filter plates were prepared, 50 μl of 0.3% PEI was added to each well of the Unifilter-96 GF/C filter plates, and the resulting filter plates were incubated at room temperature for not less than 0.5 h.
(§6) After the incubation was completed, the reaction solution was transferred from the A1 detection plate and the A2a detection plate to two Unifilter-96 GF/C filter plates, and washed with pre-cooled wash buffer for A1 and wash buffer for A2a, and then the filter plates were dried, sealed at bottom, then 50 W of Microscint 20 fluid scintillation cocktail was added, and then the filter plates were sealed at top, and counted by MicroBeta2 Reader.
(§7) Inhibition rate %=100−(signal value of test well−signal average value of low value control)/(signal average value of high value control−signal average value of low value control)*100.
(§8) EXCEL XLfit was used to fit IC50.
(§9) The calculation formula for competitive inhibition constant (Ki) was: Ki=IC50/(1+concentration of isotope-labeled ligand/Kd), wherein Kd was the dissociation constant of the isotope-labeled ligand.

[2] = biological target: T2, Adenosine A1 receptor (human) membrane (Homo sapiens, UniProt P30542); assay: Determination of competitive inhibition constant (Ki) for adenosine A1 receptor, [3H]-DPCPX radioligand; format: binding; settings: 1.0 nM [3H]-DPCPX
T2 construct: purchased PerkinElmer ES-010-M400UA
T2 sequence (P30542 1-326): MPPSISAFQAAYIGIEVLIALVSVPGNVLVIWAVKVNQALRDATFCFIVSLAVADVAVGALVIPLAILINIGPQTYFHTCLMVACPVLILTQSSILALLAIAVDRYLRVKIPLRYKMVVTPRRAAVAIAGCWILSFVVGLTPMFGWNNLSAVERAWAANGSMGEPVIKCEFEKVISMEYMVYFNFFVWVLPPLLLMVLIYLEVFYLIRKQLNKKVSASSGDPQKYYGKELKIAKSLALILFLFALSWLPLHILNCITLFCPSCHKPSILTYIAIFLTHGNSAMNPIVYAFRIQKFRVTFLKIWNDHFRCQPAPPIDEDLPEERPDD
Protocol: as §1
[^3H]-DPCPX (PerkinElmer, NET974250UC),
Adenosine A1 receptor (human) membrane (PerkinElmer, ES-010-M400UA),
assay buffer for A1 (25 mM HEPES, 5 mM MgCl2, 1 mM CaCl2, 100 mM NaCl, pH7.4), used to dilute adenosine A1 receptor (human) membrane and [^3H]-DPCPX;
wash buffer for A1 (25 mM HEPES, 5 mM MgCl2, 1 mM CaCl2, 100 mM NaCl, pH7.4);
as §2, §3, §4, §5, §6, §7, §8, §9

[3] = Pharmacokinetics (PK) and distribution in brain tissue in rats; format: in vivo, male SD rats
Protocol: Test Example 3: Study on Pharmacokinetics (PK) and Distribution in Brain Tissue in Rats
The compounds of the present application were administered to male SD rats by intravenous (IV) and intragastric (PO) respectively to investigate the pharmacokinetic characteristics. The dosages of IV and PO were 1 mg/kg and 5 mg/kg, respectively. The solvent for IV was a mixture of 5% DMSO, 5% Solutol (polyethylene glycol 15-hydroxystearate) and 90% saline, and the solvent for PO was 0.5% MC (methyl cellulose sodium). Before IV administration (0 h) and at 0.083 h, 0.25 h, 0.5 h, 1 h, 2 h, 4 h, 6 h, 8 h and 24 h time points after administration, blood samples were collected; before PO administration (0 h) and at 0.25 h, 0.5 h, 1 h, 2 h, 4 h, 6 h, 8 h and 24 h time points after administration, blood samples were collected; the blood samples were anticoagulated with EDTA.K2, and centrifuged to obtain plasma samples. For Compound 11, brain tissue samples were taken and homogenized at 0.25 h, 0.5 h, 1 h, 4 h and 8 h; for Compounds 19 and 32, and brain tissue samples were taken and homogenized at 0.25 h, 0.5 h, 1 h and 8 h (three SD rats were selected for the experiment of distribution in brain tissue at each time point), and the resulting brain tissue homogenate samples were stored at −80° C. The plasma samples and brain tissue homogenate samples were subjected to precipitation of protein, and then LC-MS/MS analysis was performed.
Pharmacokinetic parameters were calculated by means of non-compartmental model by using WinNonlin 6.3 software.

## Cc1ncnc2ccc(-c3cnc(NC(=O)N4CCN(C)CC4)nc3-c3ccc(F)cc3)cc12 [Compound 30, N-(4-(4-fluorophenyl)-5-(4-methylquinazolin-6-yl)pyrimidin-2-yl)-4-methylpiperazine-1-carboxamide]
[1]
  pKi: 7.67
  Ki(A1)/Ki(A2a): 75.0
[2]
  pKi: 5.80

## COCCN(C)C(=O)Nc1ncc(-c2ccc3ncnc(C)c3c2)c(-c2ccc(F)cc2)n1 [Compound 31, 3-(4-(4-fluorophenyl)-5-(4-methylquinazolin-6-yl)pyrimidin-2-yl)-1-(2-methoxyethyl)-1-methylurea]
[1]
  pKi: 7.56
  Ki(A1)/Ki(A2a): 120.1
[2]
  pKi: 5.48

## Cc1ncnc2ccc(-c3cc(F)c(NC(=O)N4CCOCC4)nc3-c3ccc(F)cc3)cc12 [Compound 32, N-(3-fluoro-6-(4-fluorophenyl)-5-(4-methylquinazolin-6-yl)pyridin-2-yl) morpholine-4-carboxamide]
[1]
  pKi: 8.02
  Ki(A1)/Ki(A2a): 56.2
[3]; male, SD, plasma, rat, oral 5 mg/kg compared with intravenous 1 mg/kg
  bioavailability: 80.2%
[3]; male, SD, rat plasma, IV, 1 mg/kg
  Cmax: 1480 ng/mL
[3]; male, SD, rat plasma, IV, 1 mg/kg, read-out: AUClast
  AUC(0-t): 1820 ng·h/mL
[3]; male, SD, rat plasma, PO, 5 mg/kg, read-out: AUClast (plasma)
  AUC(0-t): 7310 ng·h/mL
[3]; rat brain tissue, PO, 5 mg/kg
  AUClast (brain): 52.9 ng·h/g
[3]; rat, PO, 5 mg/kg
  Plasma AUClast/brain AUClast: 138/1
[2]
  pKi: 6.27

## Cc1ncnc2ccc(-c3cnc(NC(=O)N4CCO[C@@H](C)C4)nc3-c3ccc(F)cc3)cc12 [Compound 34, (S)-N-(4-(4-fluorophenyl)-5-(4-methylquinazolin-6-yl)pyrimidin-2-yl)-2-methylmorpholine-4-carboxamide]
[1]
  pKi: 7.90
  Ki(A1)/Ki(A2a): 42.7
[2]
  pKi: 6.27

## Cc1cc(-c2cnc(NC(=O)N3CCCCC3)nc2-c2ccc(F)cc2)cc(Cl)n1 [Compound 35, N-(5-(2-chloro-6-methylpyridin-4-yl)-4-(4-fluorophenyl)pyrimidin-2-yl) piperidine-1-carboxamide]
[1]
  pKi: 7.83
  Ki(A1)/Ki(A2a): 126.9
[2]
  pKi: 5.73

## Cc1cc(-c2cnc(NC(=O)N3CCO[C@@H](C)C3)nc2-c2ccc(F)cc2)cc(Cl)n1 [Compound 36, (S)-N-(5-(2-chloro-6-methylpyridin-4-yl)-4-(4-fluorophenyl)pyrimidin-2-yl)-2-methylmorpholine-4-carboxamide]
[1]
  pKi: 7.97
  Ki(A1)/Ki(A2a): 55.0
[2]
  pKi: 6.23

## Cc1cc(-c2cnc(NC(=O)N3C[C@@H](C)O[C@@H](C)C3)nc2-c2ccc(F)cc2)cc(Cl)n1 [Compound 37, (2R,6S)-N-(5-(2-chloro-6-methylpyridin-4-yl)-4-(4-fluorophenyl)pyrimidin-2-yl)-2,6-dimethylmorpholine-4-carboxamide]
[1]
  pKi: 7.63
  Ki(A1)/Ki(A2a): 173.7
[2]
  pKi: 5.39

## Cc1cc(-c2cnc(NC(=O)N3CCO[C@H](C)C3)nc2-c2ccc(F)cc2)cc(Cl)n1 [Compound 38, (R)-N-(5-(2-chloro-6-methylpyridin-4-yl)-4-(4-fluorophenyl)pyrimidin-2-yl)-2-methylmorpholine-4-carboxamide]
[1]
  pKi: 7.88
  Ki(A1)/Ki(A2a): 107.4
[2]
  pKi: 5.85

## Cc1ncnc2ccc(-c3cnc(NC(=O)N4C[C@@H](C)O[C@@H](C)C4)nc3-c3ccc(F)cc3)cc12 [Compound 39, (2R,6S)-N-(4-(4-fluorophenyl)-5-(4-methylquinazolin-6-yl)pyrimidin-2-yl)-2,6-dimethylmorpholine-4-carboxamide]
[1]
  pKi: 7.96
  Ki(A1)/Ki(A2a): 74.0
[2]
  pKi: 6.09

## Cc1ncnc2ccc(-c3cnc(NC(=O)N4CCO[C@H](C)C4)nc3-c3ccc(F)cc3)cc12 [Compound 40, (R)-N-(4-(4-fluorophenyl)-5-(4-methylquinazolin-6-yl)pyrimidin-2-yl)-2-methylmorpholine-4-carboxamide]
[1]
  pKi: 8.27
  Ki(A1)/Ki(A2a): 76.2
[2]
  pKi: 6.39

## Cc1ncnc2ccc(-c3ccc(NC(=O)N4CCOCC4)nc3-c3ccc(F)cc3)cc12 [Compound 41, N-(6-(4-fluorophenyl)-5-(4-methylquinazolin-6-yl)pyridin-2-yl)morpholine-4-carboxamide]
[1]
  pKi: 8.72
  Ki(A1)/Ki(A2a): 1319.0
[2]
  pKi: 5.60

## Cc1ncnc2ccc(-c3c(Cl)cc(NC(=O)N4CCOCC4)nc3-c3ccc(F)cc3)cc12 [Compound 42, N-(4-chloro-6-(4-fluorophenyl)-5-(4-methylquinazolin-6-yl)pyridin-2-yl) morpholine-4-carboxamide]
[1]
  pKi: 8.64
  Ki(A1)/Ki(A2a): 144.6
[2]
  pKi: 6.48

## Cc1cc(-c2c(C#N)cc(NC(=O)N3CCOCC3)nc2-c2ccc(F)cc2)cc(Cl)n1 [Compound 45, N-(2′-chloro-4-cyano-2-(4-fluorophenyl)-6′-methyl-[3,4′-bipyridyl]-6-yl) morpholine-4-carboxamide]
[1]
  pKi: 7.93
  Ki(A1)/Ki(A2a): 115.3
[2]
  pKi: 5.86

## Cc1ccnc2ccc(-c3c(-c4ccc(F)cc4)nc(NC(=O)N4CCOCC4)nc3C3CC3)cc12 [Compound 47, N-(4-cyclopropyl-6-(4-fluorophenyl)-5-(4-methylquinolin-6-yl)pyrimidin-2-yl)morpholine-4-carboxamide]
[1]
  pKi: 8.29
  Ki(A1)/Ki(A2a): 42.4
[2]
  pKi: 6.66
